Experimental findings from patent US12043632B2, “6-heteroaryloxy benzimidazoles and azabenzimidazoles as JAK2 inhibitors” (Ajax Therapeutics, Inc., priority 2020, dated 2024) are described below.

Each structure is given as a SMILES string.

A word on the Kd: it is a measure of binding affinity in units of concentration. A higher Kd goes with weaker binding.

T1 sequence (O60674 849-1124 Y1007F/Y1008F limits assumed): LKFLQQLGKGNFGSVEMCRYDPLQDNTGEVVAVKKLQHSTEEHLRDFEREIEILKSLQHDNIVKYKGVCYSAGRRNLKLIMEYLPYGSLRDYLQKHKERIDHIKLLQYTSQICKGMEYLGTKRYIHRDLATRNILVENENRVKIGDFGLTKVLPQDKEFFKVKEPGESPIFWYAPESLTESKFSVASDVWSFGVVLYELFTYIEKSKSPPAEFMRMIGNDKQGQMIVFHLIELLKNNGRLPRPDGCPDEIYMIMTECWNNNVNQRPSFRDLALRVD

The assay concerns the target T1, JAK2 (JH1domain-catalytic, Y1007F,Y1008F) kinase (Homo sapiens, UniProt O60674, Y1007F/Y1008F).
T1 construct: JAK2 (JH1domain-catalytic, Y1007F,Y1008F) kinase was expressed as N-terminal fusion; made in house; host or cells: transiently transfected HEK293 cells
In words: JAK2 JH1 Domain Binding Assay. Particulars: qPCR readout. (Quantitative PCR measures a nucleic acid by following its amplification.)
For `Cc1n[nH]c2ncc(Oc3cnc4nc(Nc5cc(C(C)(C)C)n([C@@H]6CCOC6)n5)n(C)c4c3)cc12` [Example I-3], the Kd is less than 10 nM.
As to `Cc1n[nH]c2ncc(Oc3cnc4nc(Nc5cc(C(C)(C)C)n([C@H]6CCOC6)n5)n(C)c4c3)cc12` [Example I-4, (S)—N-(5-(tert-butyl)-1-(tetrahydrofuran-3-yl)-1H-pyrazol-3-yl)-1-methyl-6-((3-methyl-1H-pyrazolo[3,4-b]pyridin-5-yl)oxy)-1H-imidazo[4,5-b]pyridin-2-amine], the Kd is less than 10 nM.
Turning to `Cc1cc2ncc(Oc3cnc4nc(Nc5cc(C(C)(C)C)n([C@@H]6CCOC6)n5)n(C)c4c3Cl)cn2n1` [Example I-5, (R)—N-(5-(tert-butyl)-1-(tetrahydrofuran-3-yl)-1H-pyrazol-3-yl)-7-chloro-1-methyl-6-((2-methylpyrazolo[1,5-a]pyrimidin-6-yl)oxy)-1H-imidazo[4,5-b]pyridin-2-amine], the equilibrium dissociation constant (Kd) fell in the range of 10 to 50 nM.
In turn, `Cc1cc2ncc(Oc3cnc4nc(Nc5cc(C(C)(C)C)n([C@H]6CCOC6)n5)n(C)c4c3Cl)cn2n1` [Example I-6, (S)—N-(5-(tert-butyl)-1-(tetrahydrofuran-3-yl)-1H-pyrazol-3-yl)-7-chloro-1-methyl-6-((2-methylpyrazolo[1,5-a]pyrimidin-6-yl)oxy)-1H-imidazo[4,5-b]pyridin-2-amine] gave a dissociation constant Kd of 10 to 50 nM.
Regarding `Cn1c(Nc2cc(C(F)(F)C(F)(F)F)n([C@@H]3CCOC3)n2)nc2ncc(Oc3cnc4ccnn4c3)c(Cl)c21` [Example I-7, (R)-7-chloro-1-methyl-N-(5-(perfluoroethyl)-1-(tetrahydrofuran-3-yl)-1H-pyrazol-3-yl)-6-(pyrazolo[1,5-a]pyrimidin-6-yloxy)-1H-imidazo[4,5-b]pyridin-2-amine], the dissociation constant (Kd) was in the range of 10 to 50 nM.
In the case of `Cn1c(Nc2cc(C(F)(F)C(F)(F)F)n([C@H]3CCOC3)n2)nc2ncc(Oc3cnc4ccnn4c3)c(Cl)c21` [Example I-8, (S)-7-chloro-1-methyl-N-(5-(perfluoroethyl)-1-(tetrahydrofuran-3-yl)-1H-pyrazol-3-yl)-6-(pyrazolo[1,5-a]pyrimidin-6-yloxy)-1H-imidazo[4,5-b]pyridin-2-amine], the dissociation constant Kd was in the range of 10 to 50 nM.
`Cn1c(Nc2cc(C(C)(C)C)n([C@@H]3CCOC3)n2)nc2ncc(Oc3cnc4[nH]cc(C#N)c4c3)cc21` [Example I-9] had an equilibrium dissociation constant (Kd) of 50 to 1000 nM.
Next, `Cn1c(Nc2cc(C(C)(C)C)n([C@H]3CCOC3)n2)nc2ncc(Oc3cnc4[nH]cc(C#N)c4c3)cc21` [Example I-10, (S)-5-((2-((5-(tert-butyl)-1-(tetrahydrofuran-3-yl)-1H-pyrazol-3-yl)amino)-1-methyl-1H-imidazo[4,5-b]pyridin-6-yl)oxy)-1H-pyrrolo[2,3-b]pyridine-3-carbonitrile]: 1000 to 5000 nM.
Regarding `COCc1c[nH]c2ncc(Oc3cnc4nc(Nc5cc(C(C)(C)C)n([C@@H]6CCOC6)n5)n(C)c4c3)cc12` [Example I-11], the equilibrium dissociation constant (Kd) was less than 10 nM.
Regarding `COCc1c[nH]c2ncc(Oc3cnc4nc(Nc5cc(C(C)(C)C)n([C@H]6CCOC6)n5)n(C)c4c3)cc12` [Example I-12], the Kd is less than 10 nM.
The compound `Cn1c(Nc2cc(C(C)(C)C)n([C@H]3CCOC3)n2)nc2ncc(Oc3cnn4ccnc4c3)c(Cl)c21` [Example I-13, (S)—N-(5-(tert-butyl)-1-(tetrahydrofuran-3-yl)-1H-pyrazol-3-yl)-7-chloro-6-(imidazo[1,2-b]pyridazin-7-yloxy)-1-methyl-1H-imidazo[4,5-b]pyridin-2-amine] showed a Kd of 10 to 50 nM.
The same measure for `Cn1c(Nc2cc(C(C)(C)C)n([C@@H]3CCOC3)n2)nc2ncc(Oc3cnn4ccnc4c3)c(Cl)c21` [Example I-14, (R)—N-(5-(tert-butyl)-1-(tetrahydrofuran-3-yl)-1H-pyrazol-3-yl)-7-chloro-6-(imidazo[1,2-b]pyridazin-7-yloxy)-1-methyl-1H-imidazo[4,5-b]pyridin-2-amine]: 10 to 50 nM.
For `Cn1c(Nc2cc(C(C)(C)C)n([C@@H]3CCOC3)n2)nc2ncc(Oc3cnn4cnnc4c3)c(Cl)c21` [Example I-15, (R)-6-([1,2,4]triazolo[4,3-b]pyridazin-7-yloxy)-N-(5-(tert-butyl)-1-(tetrahydrofuran-3-yl)-1H-pyrazol-3-yl)-7-chloro-1-methyl-1H-imidazo[4,5-b]pyridin-2-amine], the dissociation constant (Kd) was 50 to 1000 nM.
As for `Cn1c(Nc2cc(C(C)(C)C)n([C@H]3CCOC3)n2)nc2ncc(Oc3cnn4cnnc4c3)c(Cl)c21` [Example I-16, (S)-6-([1,2,4]triazolo[4,3-b]pyridazin-7-yloxy)-N-(5-(tert-butyl)-1-(tetrahydrofuran-3-yl)-1H-pyrazol-3-yl)-7-chloro-1-methyl-1H-imidazo[4,5-b]pyridin-2-amine], the Kd lay in the range of 10 to 50 nM.
`Cn1c(Nc2cc(C(C)(C)C#N)n([C@H]3CCOC3)n2)nc2ncc(Oc3cnc4ccnn4c3)c(Cl)c21` [Example I-17, (S)-2-(3-((7-chloro-1-methyl-6-(pyrazolo[1,5-a]pyrimidin-6-yloxy)-1H-imidazo[4,5-b]pyridin-2-yl)amino)-1-(tetrahydrofuran-3-yl)-1H-pyrazol-5-yl)-2-methylpropanenitrile]: the Kd lay within 10 to 50 nM.
The compound `Cn1c(Nc2cc(C(C)(C)C#N)n([C@@H]3CCOC3)n2)nc2ncc(Oc3cnc4ccnn4c3)c(Cl)c21` [Example I-18, (R)-2-(3-((7-chloro-1-methyl-6-(pyrazolo[1,5-a]pyrimidin-6-yloxy)-1H-imidazo[4,5-b]pyridin-2-yl)amino)-1-(tetrahydrofuran-3-yl)-1H-pyrazol-5-yl)-2-methylpropanenitrile] showed a dissociation constant (Kd) of 10 to 50 nM.
For `CN1CC[C@H](n2nc(Nc3nc4ncc(Oc5cnc6sccc6c5)c(Cl)c4n3C)cc2C(C)(C)C)C1` [Example I-19, (S)—N-(5-(tert-butyl)-1-(1-methylpyrrolidin-3-yl)-1H-pyrazol-3-yl)-7-chloro-1-methyl-6-(thieno[2,3-b]pyridin-5-yloxy)-1H-imidazo[4,5-b]pyridin-2-amine], the Kd lay within 10 to 50 nM.
`CN1CC[C@@H](n2nc(Nc3nc4ncc(Oc5cnc6sccc6c5)c(Cl)c4n3C)cc2C(C)(C)C)C1` [Example I-20, (R)—N-(5-(tert-butyl)-1-(1-methylpyrrolidin-3-yl)-1H-pyrazol-3-yl)-7-chloro-1-methyl-6-(thieno[2,3-b]pyridin-5-yloxy)-1H-imidazo[4,5-b]pyridin-2-amine] returned a Kd of 50 to 1000 nM.
For `Cn1c(Nc2cc(C(C)(C)C)n([C@@H]3CCOC3)n2)nc2ncc(Oc3cnn4ccncc34)c(Cl)c21` [Example I-21, (R)—N-(5-(tert-butyl)-1-(tetrahydrofuran-3-yl)-1H-pyrazol-3-yl)-7-chloro-1-methyl-6-(pyrazolo[1,5-a]pyrazin-3-yloxy)-1H-imidazo[4,5-b]pyridin-2-amine], the Kd is less than 10 nM.
`Cn1c(Nc2cc(C(C)(C)C)n([C@H]3CCOC3)n2)nc2ncc(Oc3cnn4ccncc34)c(Cl)c21` [Example I-22, (S)—N-(5-(tert-butyl)-1-(tetrahydrofuran-3-yl)-1H-pyrazol-3-yl)-7-chloro-1-methyl-6-(pyrazolo[1,5-a]pyrazin-3-yloxy)-1H-imidazo[4,5-b]pyridin-2-amine] showed a Kd of less than 10 nM.
